# Tests used:
# AKR1C3 [1] = target: T1, AKR1C3 (Homo sapiens, UniProt P42330); assay: S-tetralol oxidation assay, AKR1C3; format: biochemical
# T1 sequence (P42330 1-323): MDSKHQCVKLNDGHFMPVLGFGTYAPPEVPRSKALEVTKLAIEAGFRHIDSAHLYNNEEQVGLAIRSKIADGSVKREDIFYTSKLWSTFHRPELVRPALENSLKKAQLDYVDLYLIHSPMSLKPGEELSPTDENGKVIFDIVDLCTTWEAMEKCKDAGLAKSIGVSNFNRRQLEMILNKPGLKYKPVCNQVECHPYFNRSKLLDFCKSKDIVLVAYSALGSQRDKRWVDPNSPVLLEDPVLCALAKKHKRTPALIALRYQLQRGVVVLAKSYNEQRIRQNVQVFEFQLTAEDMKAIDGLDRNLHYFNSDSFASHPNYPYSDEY
# AKR1C3 [2] = target: T1, AKR1C3; assay: AKR1C3 catalyzed NADPH dependent reduction of [3H]-Δ4-AD; format: biochemical
# AKR1C3 [3] = target: T1, AKR1C3; assay: Radiometric assay of androgen metabolism; format: cell-based; conditions: LNCaP-AKR1C3 cells, 100 nM Δ4-AD, 30 µM compound, 48 h
# [4] = system: PSA expression in LNCaP-AKR1C3 cells; assay: Δ4-AD induced PSA expression in LNCaP-AKR1C3 cells; format: cell-based; conditions: 100 nM Δ4-AD, 30 µM compound, 24 h
# AKR1C2 = target: T2, AKR1C2 (Homo sapiens, UniProt P52895); conditions: 5α-DHT reduction, <100 µM concentrations
# T2 sequence (P52895 1-323): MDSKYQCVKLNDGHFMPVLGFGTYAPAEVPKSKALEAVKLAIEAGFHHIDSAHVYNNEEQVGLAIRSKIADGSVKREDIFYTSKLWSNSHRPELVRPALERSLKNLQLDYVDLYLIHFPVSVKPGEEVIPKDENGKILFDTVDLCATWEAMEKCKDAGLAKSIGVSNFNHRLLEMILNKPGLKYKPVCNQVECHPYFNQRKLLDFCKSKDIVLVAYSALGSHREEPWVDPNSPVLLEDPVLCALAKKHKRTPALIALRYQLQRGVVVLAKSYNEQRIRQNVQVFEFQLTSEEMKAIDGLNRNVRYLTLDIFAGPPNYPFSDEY
# COX-2 = conditions: no COX-2 method in this paper, ref Duggan et al.[42], cited from earlier work
smiles,measurement,setting,value
"CSc1ccc2cc(C(C)C(=O)O)ccc2c1 (racemic) [(±)-9, 2-(6-(Methylthio)naphthalen-2-yl)propanoic Acid]",increase in the inhibitory potency for AKR1C3 over that seen with naproxen,AKR1C3 [1]; S-tetralol oxidation,3 fold
"CC(C(=O)O)c1ccc2cc([S+](C)[O-])ccc2c1 (racemic) [(±)-10, 2-(6-(Methylsulfinyl)naphthalen-2-yl)propanoic Acid]",loss of inhibitory potency on AKR1C3 compared to 9,AKR1C3 [1]; S-tetralol oxidation,greater than 15 fold
"CC(C(=O)O)c1ccc2cc(S(C)(=O)=O)ccc2c1 (racemic) [(±)-11, 2-(6-(Methylsulfonyl)naphthalen-2-yl)propanoic Acid]",loss of inhibitory potency on AKR1C3 compared to 9,AKR1C3 [1]; S-tetralol oxidation,greater than 15 fold
"CC[C@@H](C(=O)O)c1ccc2cc(OC)ccc2c1 [(R)-14a, (R)-2-(6-methoxynaphthalen-2-yl)butanoic acid]",mode of AKR1C3 inhibition,AKR1C3 [1]; oxidation of S-tetralol,competitively inhibited
same,mode of AKR1C3 inhibition,AKR1C3 [2],same mode of inhibition
same,production of [3H]-testosterone glucuronide,AKR1C3 [3],significantly inhibited
same,Δ4-AD induced increase in PSA expression,[4],reduced
same,inhibition of AKR1C2,AKR1C2,did not display any significant inhibition
same,COX-2 IC50 (µM),COX-2,no inhibition ^a
CC[C@H](C(=O)O)c1ccc2cc(OC)ccc2c1 [(S)-14b],COX-2 IC50 (µM),COX-2,no inhibition ^a
"COc1ccc2cc([C@@H](C)C(=O)O)ccc2c1 [R-naproxen (1a), reference compound]",IC50,COX-2; read-out: COX-2 IC50,> 25 µM
